Test results taken from patent US4267192A, “Method for treating inflammation” (priority 1980, dated 1981).
Read-outs that look alike come from different tables or passages of the source.

What was measured:
[1] = system: polyarthritis induced by Mycobacterium butyricum or tuberculosis in rats; conditions: for Increase in Left Paw Volume (ml.) 0-16 days / Increase in Right Paw Volume (ml.) 0-4 days: mean ± S.E.
Description: (§1) Polyarthritis is induced in groups of 6-10 Sprague-Dawley rats weighing between 180-220 g. by a subcutaneous injection into the right paw of dessicated Mycobacterium butyricum or tuberculosis (0.5 mg/0.1 ml.) suspended in light mineral oil. […] Both hind paw volumes (ml.) are measured by mercury plethysmograph on day 0 or at the time of injection of the complete adjuvant. Increases in paw volume (viz. edema) are determined for both paws on days 4 and 16. The change in body weight from day 0 to day 16 is also calculated. Statistical analysis of differences in paw edemas and body weight is performed by using the unpaired. Student's t-test.

[2] = system: adjuvant arthritis in rats; test: Adjuvant Arthritis Test, periodic administration (with daily regimen for comparison); conditions: rat; for Increase in Paw Volume 0-16 days (left paw) / Increase in Right Paw Volume (ml.) 0-4 days: mean ± S.E.
Description: as §1
Adjuvant arthritis is induced as described in A. above, but drugs are administered only on days 2, 3, 4 or on days 8, 9, 10.

prostaglandin synthetase = target: T1, prostaglandin synthetase (Ovis aries, UniProt P05979); test: in vitro prostaglandin synthetase activity assay (PGE2 formation from 14C-arachidonic acid); assay type: biochemical, sheep; parameters: microsomal fraction of sheep vesicles; from tissue; host or cells: sheep seminal vesicles, microsomal fraction (105,000×g precipitate); conditions: for cpm (× 1000), in vitro PGE2 biosynthesis: sheep seminal vesicle microsomes
T1 sequence (P05979 25-600): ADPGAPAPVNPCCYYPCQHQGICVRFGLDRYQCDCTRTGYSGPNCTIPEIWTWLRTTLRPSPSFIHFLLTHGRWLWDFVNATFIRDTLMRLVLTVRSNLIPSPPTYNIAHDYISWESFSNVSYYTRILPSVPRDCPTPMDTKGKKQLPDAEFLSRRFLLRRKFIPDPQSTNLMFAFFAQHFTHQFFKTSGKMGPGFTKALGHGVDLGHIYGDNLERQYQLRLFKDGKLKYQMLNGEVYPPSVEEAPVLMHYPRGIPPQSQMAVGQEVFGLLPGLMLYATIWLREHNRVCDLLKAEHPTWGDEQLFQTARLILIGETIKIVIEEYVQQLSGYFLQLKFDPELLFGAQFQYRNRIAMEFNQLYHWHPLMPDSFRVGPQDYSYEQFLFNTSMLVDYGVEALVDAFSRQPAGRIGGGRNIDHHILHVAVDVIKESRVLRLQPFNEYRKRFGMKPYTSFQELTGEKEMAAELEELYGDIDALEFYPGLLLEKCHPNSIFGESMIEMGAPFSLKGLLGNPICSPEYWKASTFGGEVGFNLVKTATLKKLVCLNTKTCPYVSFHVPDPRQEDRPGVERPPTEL
Description: Frozen sheep seminal vesicles are cleaned of fat and connective tissue and then minced. Ten grams of the minced tissue are homogenized in 20 ml. of 0.125 M Na-EDTA buffer, pH 8.3, employing polytron homogenizer. The homogenate is then centrifuged at 1,200×g. for 10 minutes and the resulting supernatant filtered through two layers of cheese cloth. The filtrate is then centrifuged at 10,000×g. for 20 minutes. The supernatant is then centrifuged at 105,000×g. for 1 hour. The precipitate is dissolved once with Na-EDTA buffer and recentrifuged at 105,000×g. for 1 hour. The final microsomal fraction is then dissolved in 1.0 ml. of Na-EDTA buffer and stored in a freezer.
The incubation buffer medium (1.0 ml. total) consists of 500 μg of lyophilized bovine serum albumin, 5×10^-4 M hydroquinone, 1.0×10^-2 M reduced glutathione, 3×10^-6 M^14 C arachidonic acid (AA) in 0.02 ml. of methanol, 0.01 ml. of the tested drugs in methanol at the desired concentrations, and the microsomal fraction (1.2 mg. protein/ml. incubation medium). This medium is incubated for one hour at 37° C. At the end of this period, enzyme reaction is terminated by the addition of 0.25 ml. of 1 N HCl. 15 μg of non-radioactive Prostaglandin E2 (PGE2), Prostaglandin F2α (PGF2α) and AA (5 μg each) in an ethanol solution is then added to all of the acidified reaction mixtures. The reaction products are extracted with ethylacetate (2×2 ml.) and the total organic solution of 4 ml. is washed with 1.0 ml. of triple distilled water. 3.0 ml. of the total ethylacetate solution is removed and evaporated to dryness under nitrogen gas. The residue is then re-dissolvedin 50 μl. of 100% ethanol and spotted on silica gel GF plates and subjected to chromatograph. Only the organic phase of the ethyl acetate:water:iso-octane:acetic acid system (11:10:5:2) is used as solvent in the chromatography system.
After exposure to iodine vapor, the PGE2 and AA spots are scraped from the TLC plate, put into separate vials, and mixed with 10.0 ml. of Instagel scintillation cocktail for counting in a Nuclear-Chicago Mark II liquid scintillation counter.
Results are expressed as counts per minute (cpm), evidencing in vitro PGE2 biosynthesis.

[3] = rat, oral 3.0 mg/kg daily, Table 3 group a
[4] = rat, oral 5.0 mg/kg daily, Table 3 group b
[5] = rat, oral 10.0 mg/kg daily, Table 3 group a
[6] = rat, oral 10.0 mg/kg daily, Table 3 group b
[7] = rat, oral 25.0 mg/kg daily, Table 3 group b
[8] = rat, oral 30.0 mg/kg daily, Table 3 group a
[9] = rat, oral 100.0 mg/kg daily, Table 3 group a
[10] = rat, oral 300.0 mg/kg daily, Table 3 group a
[11] = oral 2 mg/kg, Daily (0-15) except weekends
[12] = oral 6 mg/kg, Daily (0-15) except weekends
[13] = oral 18 mg/kg, Daily (0-15) except weekends

O=C(O)C=C1c2ccccc2C=Cc2ccccc21 [DCHA]
potency relative to aspirin ([1]; chronic inflammatory disease mediated mainly through immunological mechanisms, in words): several times more potent than aspirin
toxicity at high doses ([1]; in words): no apparent toxicity at high doses
% Change of Left Paw Edema at Day 16 [1, 3]: -45%
% Change of Right Paw Edema at Day 4 [1, 3]: -15%
Change In Body Weight (mean ± S.E.) 0-16 days [1, 3]: 22.5 ± 9.6
Increase in Left Paw Volume (ml.) 0-16 days [1, 3]: 0.43 ± .09 mL
Increase in Right Paw Volume (ml.) 0-4 days [1, 3]: 1.33 ± .11 mL
% Change of Left Paw Edema at Day 16 [1, 4]: -5.4%
% Change of Right Paw Edema at Day 4 [1, 4]: -30%
Change In Body Weight (mean ± S.E.) 0-16 days [1, 4]: 19.5 ± 5.8
Increase in Left Paw Volume (ml.) 0-16 days [1, 4]: 0.70 ± .05 mL
Increase in Right Paw Volume (ml.) 0-4 days [1, 4]: 1.30 ± .08 mL
% Change of Left Paw Edema at Day 16 [1, 5]: -47%
% Change of Right Paw Edema at Day 4 [1, 5]: -55%
Change In Body Weight (mean ± S.E.) 0-16 days [1, 5]: 25.6 ± 8.0
Increase in Left Paw Volume (ml.) 0-16 days [1, 5]: 0.41 ± .04 mL
Increase in Right Paw Volume (ml.) 0-4 days [1, 5]: 0.70 ± .06 mL
% Change of Left Paw Edema at Day 16 [1, 6]: -55%
% Change of Right Paw Edema at Day 4 [1, 6]: -39%
Change In Body Weight (mean ± S.E.) 0-16 days [1, 6]: 33.3 ± 5.5
Increase in Left Paw Volume (ml.) 0-16 days [1, 6]: 0.33 ± .06 mL
Increase in Right Paw Volume (ml.) 0-4 days [1, 6]: 1.14 ± .04 mL
% Change of Left Paw Edema at Day 16 [1, 7]: -47%
% Change of Right Paw Edema at Day 4 [1, 7]: -47%
Change In Body Weight (mean ± S.E.) 0-16 days [1, 7]: 30.3 ± 5.7
Increase in Left Paw Volume (ml.) 0-16 days [1, 7]: 0.39 ± .04 mL
Increase in Right Paw Volume (ml.) 0-4 days [1, 7]: 1.00 ± .05 mL
% Change of Left Paw Edema at Day 16 [1, 8]: -62%
% Change of Right Paw Edema at Day 4 [1, 8]: -58%
Change In Body Weight (mean ± S.E.) 0-16 days [1, 8]: 45.8 ± 5.6
Increase in Left Paw Volume (ml.) 0-16 days [1, 8]: 0.30 ± .05 mL
Increase in Right Paw Volume (ml.) 0-4 days [1, 8]: 0.66 ± .06 mL
weight gain ([1]; rat, oral 100 mg/kg): 51 g
% Change of Left Paw Edema at Day 16 [1, 9]: -60%
% Change of Right Paw Edema at Day 4 [1, 9]: -53%
Change In Body Weight (mean ± S.E.) 0-16 days [1, 9]: 50.6 ± 5.4
Increase in Left Paw Volume (ml.) 0-16 days [1, 9]: 0.31 ± .05 mL
Increase in Right Paw Volume (ml.) 0-4 days [1, 9]: 0.74 ± .08 mL
weight gain ([1]; rat, oral 300 mg/kg): 58 g
% Change of Right Paw Edema at Day 4 [1, 10]: -58%
Change In Body Weight (mean ± S.E.) 0-16 days [1, 10]: 58.2 ± 8.3
Increase in Left Paw Volume (ml.) 0-16 days [1, 10]: 0.14 ± .06 mL
Increase in Right Paw Volume (ml.) 0-4 days [1, 10]: 0.66 ± .05 mL
toxic signs or loss of body weight ([1]; rat, oral 100 and 300 mg/kg): did not show any toxic signs or loss of body weight
anti-inflammatory activity in the adjuvant arthritis test ([1]; rat, oral, daily): significant anti-inflammatory activity
estimated ED50 (adjuvant arthritis test) ([1]; rat, oral, daily): ~15 mg/kg
active doses, right paw edema at 4 days (acute, non-specific inflammation) ([1]; rat, orally): 10 to 300 mg/kg
effective doses, left paw edema (immunologically induced inflammation) ([1]; rat, orally): 3-300 mg/kg
activity in short term dosing regimen ([2]; days 2, 3, 4): less so
activity in short term dosing regimen ([2]; days 8, 9, 10): active
% Change of Left Paw Edema at Day 16 [2, 11]: +12%
% Change of Right Paw Edema at Day 4 [2, 11]: +17%
Change In Body Weight (mean ± S.E.) 0-16 days [2, 11]: 8.9 ± 7.8
Increase in Paw Volume 0-16 days (left paw) [2, 11]: 0.82 ± 0.18
Increase in Right Paw Volume (ml.) 0-4 days [2, 11]: 1.60 ± 0.08 mL
% Change of Left Paw Edema at Day 16 [2, 12]: -16%
% Change of Right Paw Edema at Day 4 [2, 12]: -24%
Change In Body Weight (mean ± S.E.) 0-16 days [2, 12]: 6.0 ± 4.8
Increase in Paw Volume 0-16 days (left paw) [2, 12]: 0.62 ± 0.04
Increase in Right Paw Volume (ml.) 0-4 days [2, 12]: 1.03 ± 0.06 mL
% Change of Left Paw Edema at Day 16 ([2]; oral 10 mg/kg, Days 2,3,4): -22%
% Change of Right Paw Edema at Day 4 ([2]; oral 10 mg/kg, Days 2,3,4): -33%
Change In Body Weight (mean ± S.E.) 0-16 days ([2]; oral 10 mg/kg, Days 2,3,4): 14.7 ± 11.7
Increase in Paw Volume 0-16 days (left paw) ([2]; oral 10 mg/kg, Days 2,3,4): 0.58 ± 0.13
Increase in Right Paw Volume (ml.) 0-4 days ([2]; oral 10 mg/kg, Days 2,3,4): 0.92 ± 0.07 mL
% Change of Left Paw Edema at Day 16 ([2]; oral 10 mg/kg, Days 8,9,10): -58%
Change In Body Weight (mean ± S.E.) 0-16 days ([2]; oral 10 mg/kg, Days 8,9,10): 10.5 ± 7.9
Increase in Paw Volume 0-16 days (left paw) ([2]; oral 10 mg/kg, Days 8,9,10): 0.31 ± 0.06
% Change of Left Paw Edema at Day 16 [2, 13]: -65%
% Change of Right Paw Edema at Day 4 [2, 13]: -41%
Change In Body Weight (mean ± S.E.) 0-16 days [2, 13]: 18.3 ± 6.7
Increase in Paw Volume 0-16 days (left paw) [2, 13]: 0.26 ± 0.05
Increase in Right Paw Volume (ml.) 0-4 days [2, 13]: 0.81 ± 0.07 mL
cpm (× 1000), in vitro PGE2 biosynthesis (prostaglandin synthetase; 30 μg/ml): 6.6 ± .3 cpm (× 1000)
cpm (× 1000), in vitro PGE2 biosynthesis (prostaglandin synthetase; 50 μg/ml): 5.2 ± .4 cpm (× 1000)
cpm (× 1000), in vitro PGE2 biosynthesis (prostaglandin synthetase; 60 μg/ml): 5.1 ± .2 cpm (× 1000)
cpm (× 1000), in vitro PGE2 biosynthesis (prostaglandin synthetase; 100 μg/ml): 3.0 ± .1 cpm (× 1000)
cpm (× 1000), in vitro PGE2 biosynthesis (prostaglandin synthetase; 120 μg/ml): 3.3 ± .4 cpm (× 1000)
cpm (× 1000), in vitro PGE2 biosynthesis (prostaglandin synthetase; 150 μg/ml): 2.1 ± .3 cpm (× 1000)
cpm (× 1000), in vitro PGE2 biosynthesis (prostaglandin synthetase; 200 μg/ml): 2.0 ± .1 cpm (× 1000)
IC50 (prostaglandin synthetase; calculated from Table 6, read-out: 50% inhibitory concentration (converted)): 259 µM
inhibitory effect on prostaglandin synthetase activity (prostaglandin synthetase; in words): does not have an appreciable inhibitory effect on prostaglandin synthetase activity
